According to patent publication EP0641797A1, “Cephem derivatives and antimicrobial agents containing the same” (KATAYAMA SEIYAKUSYO CO. Ltd., priority 1993, dated 1995):
Converted amounts (≈) assume the structure as drawn. Like-named read-outs stand apart in the source and are kept apart here.

Assays:
Assay in all cases: MIC on standard strains, standard method of Japan Society of Chemotherapy
Type in all cases: cell-based
A. calcoaceticos T59 = conditions: read-out: MIC
Method: (§1) Antimicrobial activity of the compounds of the present invention were measured using CTM (cefotiam) and FMOX (flomoxef) as control drugs in accordance with the standard method of Japan Society of Chemotherapy. Of the 25 standard strains used in this test, Staphylococcus aureus 167 and Staphylococcus aureus 195 belong to MRSA.
(§2) In these tables, drugs tested are shown by the corresponding examples in which they were synthesized.

A. faecalis ATCC 3750 = tested on: A. faecalis ATCC 3750
Method: as §1, §2

B. subtilis ATCC 6633 = conditions: Bacillus subtilis, ATCC6633, B. subtilis ATCC 6633; read-out: MIC
Method: as §1, §2

C. freundii ATCC 8090 = conditions: Citrobacter freundii, ATCC8090, C. freundii ATCC 8090; read-out: MIC
Method: as §1, §2

E. cloacae ATCC 13407 = tested on: E. cloacae ATCC 13407
Method: as §1, §2

E. cloacae Nek39 = conditions: Enterobacter cloacae, NEK39, E. cloacae Nek39; read-out: MIC
Method: as §1, §2

E. coli CSH2(RE45) = tested on: E. coli CSH2(RE45)
Method: as §1, §2

E. coli CSH2(RK1) = conditions: Escherichia coli
Method: as §1, §2

E. coli NHIJ JC-2 = conditions: Escherichia coli, NHIJJC2
Method: as §1, §2

K. pneuminiae IFO 3317 = tested on: K. pneuminiae IFO 3317
Method: as §1, §2

K. pneuminiae No. 42 = tested on: K. pneuminiae No. 42
Method: as §1, §2

M. luteus ATCC 9341 = conditions: Micrococcus luteus, ATCC9341
Method: as §1, §2

M. morganii IFO 3848 = conditions: Morganella morganii, IFO3848
Method: as §1, §2

P. aeruginosa AKR17 = conditions: Pseudomonas aeruginosa
Method: as §1, §2

P. aeruginosa NCTC 10490 = tested on: P. aeruginosa NCTC 10490
Method: as §1, §2

P. cepacia = conditions: Burkholderia cepacia, read-out: MIC
Method: as §1, §2

P. mirabilis IFO 3849 = tested on: P. mirabilis IFO 3849
Method: as §1, §2

P. vulugaris OX-19 = tested on: P. vulugaris OX-19
Method: as §1, §2

S. aureus 167 = conditions: Staphylococcus aureus; S. aureus 167 (MRSA)
Method: as §1, §2

S. aureus 195 = conditions: Staphylococcus aureus; S. aureus 195 (MRSA)
Method: as §1, §2

S. aureus 209p JC-1 = tested on: S. aureus 209p JC-1
Method: as §1, §2

S. aureus Smith = tested on: S. aureus Smith
Method: as §1, §2

S. epidemidis IAM 1296 = tested on: S. epidemidis IAM 1296
Method: as §1, §2

S. marcescens IAM 1184 = tested on: S. marcescens IAM 1184
Method: as §1, §2

S. marcescens No. 16-2 = conditions: Serratia marcescens, NO.162
Method: as §1, §2

[1] = Alcaligenes faecalis, ATCC3750, A. faecalis ATCC 3750, read-out: MIC
[2] = Enterobacter cloacae, ATCC13407, E. cloacae ATCC 13407, read-out: MIC
[3] = Pseudomonas aeruginosa, NCTC10490, P. aeruginosa NCTC 10490, read-out: MIC
[4] = Proteus mirabilis, IFO3849, P. mirabilis IFO 3849, read-out: MIC
[5] = Staphylococcus aureus, 209P, read-out: MIC
[6] = Staphylococcus aureus, read-out: MIC
[7] = Serratia marcescens, IAM1184, S. marcescens IAM 1184, read-out: MIC

Row | SMILES | MIC (A. calcoaceticos T59) [µg/mL] | MIC (A. faecalis ATCC 3750; [1]) [µg/mL] | MIC (B. subtilis ATCC 6633) [µg/mL] | MIC (C. freundii ATCC 8090) [µg/mL] | MIC (E. cloacae ATCC 13407; [2]) [µg/mL] | MIC (E. cloacae Nek39) [µg/mL] | MIC (E. coli CSH2(RE45); Escherichia coli) [µg/mL] | MIC (E. coli CSH2(RK1)) [µg/mL] | MIC (E. coli NHIJ JC-2) [µg/mL] | MIC (K. pneuminiae IFO 3317) [µg/mL] | MIC (K. pneuminiae No. 42) [µg/mL] | MIC (M. luteus ATCC 9341) [µg/mL] | MIC (M. morganii IFO 3848) [µg/mL] | MIC (P. aeruginosa AKR17) [µg/mL] | MIC (P. aeruginosa NCTC 10490; [3]) [µg/mL] | MIC (P. cepacia) [µg/mL] | MIC (P. mirabilis IFO 3849; [4]) [µg/mL] | MIC (P. vulugaris OX-19) [µg/mL] | MIC (S. aureus 167) [µg/mL] | MIC (S. aureus 195) [µg/mL] | further results
1 | NC(=NO)c1cc[n+](CC2=C(C(=O)[O-])N3C(=O)[C@@H](NC(=O)/C(=N\O)c4csc(N)n4)[C@H]3SC2)cc1 [Ex. 20, 7β-[2-(2-aminothiazol-4-yl)-2-syn-hydroxyiminoacetamido]-3-[4-(1-amino-1-hydroxyiminomethyl)pyridinio]methyl-3-cephem-4-carboxylate] | 6.25 (≈ 12.1 µM) | 0.78 (≈ 1.5 µM) | 0.2 (≈ 0.386 µM) | 0.2 (≈ 0.386 µM) | 12.5 (≈ 24.1 µM) | 50 (≈ 96.4 µM) | 0.2 (≈ 0.386 µM) | 0.39 (≈ 0.752 µM) | 0.2 (≈ 0.386 µM) | 0.1 (≈ 0.193 µM) | 0.39 (≈ 0.752 µM) | 0.025 (≈ 0.0482 µM) | 0.1 (≈ 0.193 µM) | > 100 | 0.78 (≈ 1.5 µM) | > 100 | 0.2 (≈ 0.386 µM) | 0.2 (≈ 0.386 µM) | 6.25 (≈ 12.1 µM) | 3.31 (≈ 6.38 µM) | MIC (S. aureus 209p JC-1; [5]): 0.2 µg/mL (≈ 0.386 µM); MIC (S. aureus Smith; [6]): 0.39 µg/mL (≈ 0.752 µM); MIC (S. epidemidis IAM 1296): 0.05 µg/mL (≈ 0.0964 µM); MIC (S. marcescens IAM 1184; [7]): 0.1 µg/mL (≈ 0.193 µM); MIC (S. marcescens No. 16-2): 100 µg/mL (≈ 193 µM)
2 | NC(=NO)c1ccc[n+](CC2=C(C(=O)[O-])N3C(=O)[C@@H](NC(=O)/C(=N\O)c4csc(N)n4)[C@H]3SC2)c1 [Ex. 19, 7β-[2-(2-aminothiazol-4-yl)-2-syn-hydroxyiminoacetamido]-3-[3-(1-amino-1-hydroxyiminomethyl)pyridinio]methyl-3-cephem-4-carboxylate] | 6.25 (≈ 12.1 µM) | 3.18 (≈ 6.13 µM) | 0.39 (≈ 0.752 µM) | 0.39 (≈ 0.752 µM) | 3.13 (≈ 6.04 µM) | 50 (≈ 96.4 µM) | 0.39 (≈ 0.752 µM) | 0.78 (≈ 1.5 µM) | 0.39 (≈ 0.752 µM) | 0.2 (≈ 0.386 µM) | 0.78 (≈ 1.5 µM) | 0.1 (≈ 0.193 µM) | 0.2 (≈ 0.386 µM) | > 100 | 3.13 (≈ 6.04 µM) | > 100 | 0.39 (≈ 0.752 µM) | 0.39 (≈ 0.752 µM) | 6.25 (≈ 12.1 µM) | 1.56 (≈ 3.01 µM) | MIC (S. aureus 209p JC-1; [5]): 0.2 µg/mL (≈ 0.386 µM); MIC (S. aureus Smith; [6]): 0.39 µg/mL (≈ 0.752 µM); MIC (S. epidemidis IAM 1296): 0.1 µg/mL (≈ 0.193 µM); MIC (S. marcescens IAM 1184; [7]): 0.2 µg/mL (≈ 0.386 µM); MIC (S. marcescens No. 16-2): 100 µg/mL (≈ 193 µM)
3 | CN(C)CCn1nnnc1SCC1=C(C(=O)O)N2C(=O)[C@@H](NC(=O)Cc3csc(N)n3)[C@H]2SC1 [CTM, cefotiam, reference compound] | > 100 | 6.25 (≈ 11.9 µM) | 0.39 (≈ 0.742 µM) | 0.78 (≈ 1.48 µM) | 50 (≈ 95.1 µM) | > 100 | 0.2 (≈ 0.38 µM) | 0.2 (≈ 0.38 µM) | 0.2 (≈ 0.38 µM) | 0.2 (≈ 0.38 µM) | 0.39 (≈ 0.742 µM) | 0.39 (≈ 0.742 µM) | 0.2 (≈ 0.38 µM) | > 100 | > 100 | > 100 | 0.78 (≈ 1.48 µM) | 0.39 (≈ 0.742 µM) | > 100 | > 100 | MIC (A. faecalis ATCC 3750; A. faecalis ATCC 3750): 3.13 µg/mL (≈ 5.95 µM); MIC (E. cloacae ATCC 13407; E. cloacae ATCC 13407): >100 µg/mL; MIC (E. coli CSH2(RE45)): 0.39 µg/mL (≈ 0.742 µM); MIC (P. aeruginosa NCTC 10490; P. aeruginosa NCTC 10490): 100 µg/mL (≈ 190 µM); MIC (P. mirabilis IFO 3849; P. mirabilis IFO 3849): 0.39 µg/mL (≈ 0.742 µM); MIC (S. aureus 209p JC-1): 0.78 µg/mL (≈ 1.48 µM); MIC (S. aureus 209p JC-1; [5]): 1.56 µg/mL (≈ 2.97 µM); MIC (S. aureus Smith): 0.78 µg/mL (≈ 1.48 µM); MIC (S. aureus Smith; [6]): 1.56 µg/mL (≈ 2.97 µM); MIC (S. epidemidis IAM 1296): 0.39 µg/mL (≈ 0.742 µM); MIC (S. marcescens IAM 1184; S. marcescens IAM 1184): 3.13 µg/mL (≈ 5.95 µM); MIC (S. marcescens IAM 1184; [7]): 6.25 µg/mL (≈ 11.9 µM); MIC (S. marcescens No. 16-2): > 100 µg/mL
